# Publication PMC9963121, “Development of Combretastatin A-4 Analogues as Potential Anticancer Agents with Improved Aqueous Solubility” (Molecules, 2023)
# Tested on: AGS gastric cancer cell
# Assay: MTT cell growth inhibition assay, AGS gastric cancer cells
# Assay type: cell-based
# Conditions: Homo sapiens, mean ± SD of three experiments
# Source text: (§1) Initially, we designed and synthesised seven compounds—9a and 12a1–12a6—and evaluated the anticancer activity and aqueous solubility. We evaluated the cytotoxic effects of these stilbene nitrile analogues against a panel of four human cancer cell lines (HCT-116, BEL-7402, MCF-7 and AGS) and two human non-cancerous normal cell lines (L-02 and MCF-10A), using CA-4 as a control. The compounds were screened for aqueous solubility in 0.01 M PBS using a high throughput UV method. […] It is possible that the size of the nitrogen heterocycle had little effect on the activity of these compounds. […] The aqueous solubility of all the compounds 12a1–12a6 was higher than that of 9a, particularly that of 12a1 and 12a2 containing piperazine rings. […] Of the six compounds with improved aqueous solubility, 12a1 had the best activity.
# (§2) All human cell lines were used in this study. AGS gastric cancer cell, BEL-7402 liver cancer cell, HCT-116 colorectal cancer cell, L-02 normal liver cell, MCF-7 breast cancer cell, and MCF-10A normal breast cell were initially purchased from American Type Culture Collection (ATCC, Manassas, VA, USA). RPMI-1640 media, DMEM and FBS, were provided by Gibco Company. The cells were maintained in DMEM or RPMI-1640, supplemented with 10% FBS, 100 IU/mL penicillin and […] streptomycin, and at 37 °C in a humidified atmosphere containing 5% CO2.
# (§3) The experiment was carried out according to the method of reference.
row,IC50 [µM],Structure (SMILES)
1,12.6 ± 1.79,CCN(CC)CC(=O)Nc1ccc(/C=C(\C#N)c2cc(OC)c(OC)c(OC)c2)cc1 [12a4]
2,29.1 ± 1.98,COc1cc(/C(C#N)=C/c2ccc(NC(=O)CN3CCOCC3)cc2)cc(OC)c1OC [12a5]
3,15.6 ± 0.73,COc1cc(/C(C#N)=C/c2ccc(NC(=O)CN3CCN(C)CC3)cc2C)cc(OC)c1OC [12b1]
4,15 ± 2.32,CCN1CCN(CC(=O)Nc2ccc(/C=C(\C#N)c3cc(OC)c(OC)c(OC)c3)c(C)c2)CC1 [12b2]
5,29.1 ± 1.98,COc1ccc(/C(C#N)=C/c2ccc(NC(=O)CN3CCN(C)CC3)cc2)cc1OC [12c1]
6,48.8 ± 2.44,CCN1CCN(CC(=O)Nc2ccc(/C=C(\C#N)c3ccc(OC)c(OC)c3)cc2)CC1 [12c2]

# Tested on: MCF-7 breast cancer cell
# Assay: MTT cell growth inhibition assay, MCF-7 breast cancer cells
# Assay type: cell-based
# Conditions: Homo sapiens, MCF7, mean ± SD of three experiments
# Source text: as §1, §2, §3
row,IC50 [µM],Structure (SMILES)
1,13.3 ± 2.59,CCN(CC)CC(=O)Nc1ccc(/C=C(\C#N)c2cc(OC)c(OC)c(OC)c2)cc1 [12a4]
2,48.3 ± 5.41,COc1cc(/C(C#N)=C/c2ccc(NC(=O)CN3CCOCC3)cc2)cc(OC)c1OC [12a5]
3,22.5 ± 3.6,COc1cc(/C(C#N)=C/c2ccc(NC(=O)CN3CCN(C)CC3)cc2C)cc(OC)c1OC [12b1]
4,19.8 ± 3.16,CCN1CCN(CC(=O)Nc2ccc(/C=C(\C#N)c3cc(OC)c(OC)c(OC)c3)c(C)c2)CC1 [12b2]
5,33.9 ± 2.22,COc1ccc(/C(C#N)=C/c2ccc(NC(=O)CN3CCN(C)CC3)cc2)cc1OC [12c1]
6,31.1 ± 4.38,CCN1CCN(CC(=O)Nc2ccc(/C=C(\C#N)c3ccc(OC)c(OC)c3)cc2)CC1 [12c2]

# Tested on: HCT-116 colorectal cancer cell
# Assay: MTT cell growth inhibition assay, HCT-116 colorectal cancer cells
# Assay type: cell-based, human
# Conditions: Homo sapiens, HCT-116; MTT; mean ± SD of three experiments
# Source text: as §1, §2, §3
row,IC50 [µM],Structure (SMILES)
1,5.64 ± 0.15,CCN(CC)CC(=O)Nc1ccc(/C=C(\C#N)c2cc(OC)c(OC)c(OC)c2)cc1 [12a4]
2,6.87 ± 1.04,COc1cc(/C(C#N)=C/c2ccc(NC(=O)CN3CCOCC3)cc2)cc(OC)c1OC [12a5]
3,5.25 ± 1.6,COc1cc(/C(C#N)=C/c2ccc(NC(=O)CN3CCN(C)CC3)cc2C)cc(OC)c1OC [12b1]
4,6.68 ± 1.1,CCN1CCN(CC(=O)Nc2ccc(/C=C(\C#N)c3cc(OC)c(OC)c(OC)c3)c(C)c2)CC1 [12b2]
5,4.4 ± 0.79,COc1ccc(/C(C#N)=C/c2ccc(NC(=O)CN3CCN(C)CC3)cc2)cc1OC [12c1]
6,21.6 ± 2.87,CCN1CCN(CC(=O)Nc2ccc(/C=C(\C#N)c3ccc(OC)c(OC)c3)cc2)CC1 [12c2]

# Tested on: BEL-7402 liver cancer cell
# Assay: MTT cell growth inhibition assay, BEL-7402 liver cancer cells
# Assay type: cell-based
# Conditions: Homo sapiens, mean ± SD of three experiments, read-out: IC50 BEL-7402 Hepatoma Cells
# Source text: as §1, §2, §3
row,IC50 [µM],Structure (SMILES)
1,3.81 ± 0.43,CCN(CC)CC(=O)Nc1ccc(/C=C(\C#N)c2cc(OC)c(OC)c(OC)c2)cc1 [12a4]
2,6.74 ± 1.97,COc1cc(/C(C#N)=C/c2ccc(NC(=O)CN3CCOCC3)cc2)cc(OC)c1OC [12a5]
3,6.62 ± 2.09,COc1cc(/C(C#N)=C/c2ccc(NC(=O)CN3CCN(C)CC3)cc2C)cc(OC)c1OC [12b1]
4,7.42 ± 1.76,CCN1CCN(CC(=O)Nc2ccc(/C=C(\C#N)c3cc(OC)c(OC)c(OC)c3)c(C)c2)CC1 [12b2]
5,8.95 ± 1.37,COc1ccc(/C(C#N)=C/c2ccc(NC(=O)CN3CCN(C)CC3)cc2)cc1OC [12c1]
6,10.1 ± 2.18,CCN1CCN(CC(=O)Nc2ccc(/C=C(\C#N)c3ccc(OC)c(OC)c3)cc2)CC1 [12c2]

# Tested on: MCF-10A normal breast cell
# Assay: MTT cell growth inhibition assay, MCF-10A normal breast cells
# Assay type: cell-based
# Conditions: Homo sapiens, mean ± SD of three experiments, read-out: IC50 MCF-10A Normal Breast Epithelial Cells
# Source text: as §1, §2, §3
row,Structure (SMILES),IC50 [µM]
1,CCN(CC)CC(=O)Nc1ccc(/C=C(\C#N)c2cc(OC)c(OC)c(OC)c2)cc1 [12a4],24.8 ± 4.44
2,COc1cc(/C(C#N)=C/c2ccc(NC(=O)CN3CCOCC3)cc2)cc(OC)c1OC [12a5],> 100
3,COc1cc(/C(C#N)=C/c2ccc(NC(=O)CN3CCN(C)CC3)cc2C)cc(OC)c1OC [12b1],15.2 ± 0.66
4,CCN1CCN(CC(=O)Nc2ccc(/C=C(\C#N)c3cc(OC)c(OC)c(OC)c3)c(C)c2)CC1 [12b2],20.2 ± 2.4
5,COc1ccc(/C(C#N)=C/c2ccc(NC(=O)CN3CCN(C)CC3)cc2)cc1OC [12c1],> 100
6,CCN1CCN(CC(=O)Nc2ccc(/C=C(\C#N)c3ccc(OC)c(OC)c3)cc2)CC1 [12c2],29.7 ± 4.56

# Tested on: L-02 normal liver cell
# Assay: MTT cell growth inhibition assay, L-02 normal liver cells
# Assay type: cell-based
# Conditions: Homo sapiens, mean ± SD of three experiments
# Source text: as §1, §2, §3
row,Structure (SMILES),IC50 [µM]
1,CCN(CC)CC(=O)Nc1ccc(/C=C(\C#N)c2cc(OC)c(OC)c(OC)c2)cc1 [12a4],69.4 ± 7.3
2,COc1cc(/C(C#N)=C/c2ccc(NC(=O)CN3CCOCC3)cc2)cc(OC)c1OC [12a5],40.7 ± 5.18
3,COc1cc(/C(C#N)=C/c2ccc(NC(=O)CN3CCN(C)CC3)cc2C)cc(OC)c1OC [12b1],20.3 ± 1.08
4,CCN1CCN(CC(=O)Nc2ccc(/C=C(\C#N)c3cc(OC)c(OC)c(OC)c3)c(C)c2)CC1 [12b2],22.1 ± 2.05
5,COc1ccc(/C(C#N)=C/c2ccc(NC(=O)CN3CCN(C)CC3)cc2)cc1OC [12c1],23.5 ± 3.87
6,CCN1CCN(CC(=O)Nc2ccc(/C=C(\C#N)c3ccc(OC)c(OC)c3)cc2)CC1 [12c2],22.1 ± 2.64

# Tested on: not listed separately
# Assay: Aqueous solubility in 0.01 M PBS, high throughput UV method
# Assay type: physicochemical
# Conditions: aqueous phosphate buffer, aqueous buffer; sodium phosphate buffer 0.01 M, pH 7.4, 22 ± 2 °C; mean ± SD
# Source text: as §1
# The aqueous solubility was determined as a previously reported procedure. Put simply, a certain amount of powdered compound was placed in a 2 mL centrifuge tube and mixed with an appropriate volume of aqueous phosphate buffer (10 mM, pH 7.4) to make the whole system supersaturated. The mixtures were sonicated (KQ5200DE numerical control ultrasonic cleaner, Kunshan Ultrasonic Instrument Co., Ltd., SuZhou, China) for 20 min. After sonication, the mixture was allowed to equilibrate at RT (22 ± 2 °C) for 1.5 h with vortex shaking (1200 rpm). Then centrifuged at 3000 rpm for 15 min (1-14k, sigma, Darmstadt, Germany), the supernatant was filtered with a 0.22 µM filter membrane. And then, take 150 µL of filtrate and add it to 96-well UV plate with triplicate. Draw 150 μL of blank solution was added into plate as blank control. The 96-well UV plate prepared above was read on a Synergy HTX Multifunctional Microplate Reader (BioTek, Vermont, USA) at 294 nm. The absorbance of the sample was corrected according to the UV response of the sample and blank solution, and the corrected UV response values were used for solubility calculations by bringing into the standard curve of the compound. […]
# 1.5. Solubility Assessment
# The aqueous solubility was determined as previously reported using the high throughput solubility screens procedure published by Bruno Bard et al [9. 10]. Put simply, a certain amount of powdered compound was placed in a 2 ml centrifuge tube and mixed with an appropriate volume of aqueous phosphate buffer (0.01 M, pH 7.4) to make the whole system supersaturated. The mixtures were sonicated (KQ5200DE numerical control ultrasonic cleaner, Kunshan Ultrasonic Instrument Co., Ltd., China) for 20 min. After sonication, the mixture was allowed to equilibrate at room temperature (22 ± 2°C) for 1.5 h with vortex shaking (1200 rpm). Then the centrifuge tube was put into the centrifuge (1-14k, sigma, Germany), centrifuged with 3000 rpm for 15 minutes, 0.22 µM filter membrane filtration supernatant, then take 150 µl filtrate and add it to 96-well UV plate, with three well for each compound. Draw 150 μL blank solution were added into 96 well-plate as blank control. The 96-well UV […]
# plate prepared above was read on a SynergyHTX Multifunctional microplate reader (BioTek, USA) at 338 nm (compounds 12a-12d and 15-20) or 370 nm (compounds 9a-d). The absorbance of the sample was corrected according to the UV response of the sample and blank solution, and the corrected UV responses value were used for solubility calculations by bring into the standard curve of the compound. […]
row,solubility thermodynamic at 1.5 h [µg/mL],Structure (SMILES)
1,15.5 ± 2.3,CCN(CC)CC(=O)Nc1ccc(/C=C(\C#N)c2cc(OC)c(OC)c(OC)c2)cc1 [12a4]
2,15 ± 2.6,COc1cc(/C(C#N)=C/c2ccc(NC(=O)CN3CCOCC3)cc2)cc(OC)c1OC [12a5]
3,104 ± 19.8,COc1cc(/C(C#N)=C/c2ccc(NC(=O)CN3CCN(C)CC3)cc2C)cc(OC)c1OC [12b1]
4,253 ± 30.7,CCN1CCN(CC(=O)Nc2ccc(/C=C(\C#N)c3cc(OC)c(OC)c(OC)c3)c(C)c2)CC1 [12b2]
5,124 ± 8.7,COc1ccc(/C(C#N)=C/c2ccc(NC(=O)CN3CCN(C)CC3)cc2)cc1OC [12c1]
6,85.1 ± 13.2,CCN1CCN(CC(=O)Nc2ccc(/C=C(\C#N)c3ccc(OC)c(OC)c3)cc2)CC1 [12c2]
